The results in this text go back to patent US5366992A, “Benzoic acid substituted derivatives having cardiovascular activity” (Italfarmaco S.p.A., priority 1990, dated 1994).

One may read the IC50 as the midpoint of a concentration-inhibition curve. Higher therefore signals weaker potency in that assay.

Structures can show the parent of a compound that is named as a salt.

For assay [1], the system named is noradrenaline-contracted rat aortha strip. The assay can be described thus: in vitro vasorelaxing activity, noradrenaline-contracted rat aortha strip. The settings on record: concentration inhibiting by 50% the contraction of noradrenaline-contracted rat aortha strip. Here is the method:
The in vitro vasorelaxing activity of the compounds of the present invention was evaluated in the test of the noradrenaline-contracted rat aortha strip. The test was carried out according to the procedure described by K. Murakami et al., Eur. J. Pharmacol., 141, 195, 1987. The IC50 values, i.e. the concentration of active substance, expressed in mol/1, inhibiting by 50% the aortha strip contraction, were evaluated.

In assay [2] the test system is Sprague Dawley anesthetized rats. The assay can be described thus: in vivo antianginal activity, Arg-vasopressin-induced coronaric spasm (T wave increase) in anesthetized rats. The arrangement: species or system Sprague Dawley rat. The settings on record: 3 mg/kg through gastric probe, one hour before i.v. Arg-vasopressin (1 I.U./kg). How it is done:
In vivo antianginal activity was evaluated in Sprague Dawley anesthetized rats of 350-400 g mean weight, according to the procedure by M. Leitold et al., Arzneim. Forsch. 36, 1454, 1986. The test was carried out by intravenously administering to the animal one I.U./kg (equivalent to 3 mg/kg) of Arg-vasoprexine inducing a choronaric spasm which can be reproduced and electrocardiographically evidenced by an increase in the T wave. The compounds of the invention were administered through a gastric probe at a dose of 3 mg/kg, one hour before administering Arg-vasoprexine.The antianginal effect was expressed as percent inhibition of the increase in T wave versus controls.

In the case of `CC(=O)Oc1cccc(C(=O)NCCCCCO[N+](=O)[O-])c1` [3 B], the concentration for half-maximal inhibition (IC50) in assay [1] worked out at 1200 nM.
In assay [1], `CC(=O)Oc1ccccc1C(=O)NCCCCCO[N+](=O)[O-]` [4 B] showed an IC50 of 110 nM. Further, in assay [2], the “% Inhibition of the increase in T waves versus controls” value came out at 53%.
For `CC(=O)Oc1ccccc1C(=O)OCCO[N+](=O)[O-]` [8 B] the same measures were 13 nM and 61%.
For `O=C(NCCO[N+](=O)[O-])c1ccccc1O` [9 A] the same measures were 160 nM and 42%.
In the case of `CC(=O)Oc1cccc(C(=O)NCCO[N+](=O)[O-])c1` [Example 1, 3-Acetoxy-N-(2-nitroxyethyl)-benzamide], the concentration for half-maximal inhibition (IC50) in assay [1] was 160 nM.
Consider `CC(=O)Oc1ccc(C(=O)NCCO[N+](=O)[O-])cc1` [Example 2, 4-Acetoxy-N-(2-nitroxyethyl)-benzamide], for which 2300 nM corresponded to half-maximal inhibition in assay [1] (IC50). In assay [2], the “% Inhibition of the increase in T waves versus controls” value is recorded as 55%.
`O=C(NCCO[N+](=O)[O-])c1ccccc1OC(=O)C1CSCN1` (centres unmarked) [Example 9, N-(2-Nitroxyethyl)-2-[(4-thiazolidinyl)carbonyloxy]benzamide hydrochloride]: the IC50 in assay [1] was 540 nM.
